{"source": "paper PMC7044277", "about": "(Nature Communications, 2020)", "key": {"DRD3 wild-type": {"biological_target": "DRD3 wild-type (Homo sapiens, UniProt P35462)", "sequence (P35462 whole entry)": "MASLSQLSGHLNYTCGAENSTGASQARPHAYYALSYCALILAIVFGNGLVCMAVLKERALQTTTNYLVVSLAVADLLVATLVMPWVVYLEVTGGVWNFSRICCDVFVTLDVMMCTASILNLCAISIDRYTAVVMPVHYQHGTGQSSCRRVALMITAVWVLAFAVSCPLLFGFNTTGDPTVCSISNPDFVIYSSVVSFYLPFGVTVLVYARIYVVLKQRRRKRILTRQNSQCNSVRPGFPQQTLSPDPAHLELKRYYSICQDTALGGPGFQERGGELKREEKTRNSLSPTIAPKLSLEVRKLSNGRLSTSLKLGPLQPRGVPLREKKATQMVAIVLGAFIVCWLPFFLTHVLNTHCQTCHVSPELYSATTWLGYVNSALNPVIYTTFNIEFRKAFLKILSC", "test": "Radioligand competition binding, [3H]-N-methylspiperone", "settings": "DRD3 wild-type; read-out: pKi ± SEM (converted)"}, "DRD2 (D2 long receptor)": {"biological_target": "DRD2 (D2 long receptor) (Homo sapiens, UniProt P14416)", "sequence (P14416 whole entry)": "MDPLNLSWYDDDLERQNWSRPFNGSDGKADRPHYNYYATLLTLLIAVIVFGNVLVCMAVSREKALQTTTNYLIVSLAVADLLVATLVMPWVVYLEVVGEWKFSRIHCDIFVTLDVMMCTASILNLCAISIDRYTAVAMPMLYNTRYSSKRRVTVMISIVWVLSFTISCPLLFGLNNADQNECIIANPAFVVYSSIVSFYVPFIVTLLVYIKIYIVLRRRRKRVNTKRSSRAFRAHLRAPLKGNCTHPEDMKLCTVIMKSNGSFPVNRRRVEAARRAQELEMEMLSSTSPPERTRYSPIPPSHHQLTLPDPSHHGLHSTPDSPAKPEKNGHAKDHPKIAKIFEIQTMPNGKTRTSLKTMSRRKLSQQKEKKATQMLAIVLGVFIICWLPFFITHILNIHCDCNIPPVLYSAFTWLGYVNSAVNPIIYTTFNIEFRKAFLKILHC", "test": "Gαi/o-mediated cAMP inhibition (GloSensor split-luciferase cAMP reporter), HEK293T;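 as to all read-outs here: compounds applied 15 min at room temperature, then luciferin plus 400 nM isoproterenol to raise cAMP through endogenous β2-adrenergic receptors, luminescence read 15 min later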", "assay_type": "cell-based", "settings": "for response, Fig_S11d dose-response source data: replicate values; for Response, Fig_S11b dose-response: individual replicates"}, "DRD4 (D4.4 variant)": {"biological_target": "T1, DRD4 (D4.4 variant) (Homo sapiens, UniProt P21917)", "T1 sequence (P21917 1-419)": "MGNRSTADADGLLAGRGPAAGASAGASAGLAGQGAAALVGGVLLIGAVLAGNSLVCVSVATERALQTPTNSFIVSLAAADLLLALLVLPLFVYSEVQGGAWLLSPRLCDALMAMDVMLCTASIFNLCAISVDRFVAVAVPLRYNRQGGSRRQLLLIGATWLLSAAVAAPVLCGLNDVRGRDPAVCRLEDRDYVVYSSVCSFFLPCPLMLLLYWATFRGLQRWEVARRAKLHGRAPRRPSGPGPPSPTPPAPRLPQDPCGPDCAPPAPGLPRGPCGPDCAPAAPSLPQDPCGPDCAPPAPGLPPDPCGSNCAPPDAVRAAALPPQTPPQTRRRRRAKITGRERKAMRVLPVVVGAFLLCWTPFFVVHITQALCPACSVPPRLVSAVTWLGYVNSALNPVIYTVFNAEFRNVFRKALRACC", "test": "Gαi/o-mediated cAMP inhibition (GloSensor)", "assay_type": "cell-based", "settings": "DRD4; agonist, cAMP inhibition; read-out: EC50 ± SEM"}, "DRD3": {"biological_target": "DRD3 (Homo sapiens, UniProt P35462)", "sequence (P35462 whole entry)": "as the sequence (P35462 whole entry) above", "test": "β-arrestin2 recruitment (Tango)", "assay_type": "cell-based", "settings": "DRD3, Tango"}, "DRD2 F1103.28A": {"biological_target": "DRD2 F1103.28A (Homo sapiens, UniProt P14416, F110A)", "sequence (P14416 whole entry F110A)": "as the sequence (P14416 whole entry) above, with F110A counted along it", "test": "β-arrestin2 recruitment (Tango), mutant", "assay_type": "cell-based", "parameters": "expressed in transfected cells; host or cells: HEK293T (ATCC CRL-11268)"}, "[1]": {"tested_on": "serotonin receptor (subtype not given; reference agonist serotonin)", "test": "β-arrestin2 recruitment (Tango), agonist activity, source data Fig_S10l", "assay_type": "cell-based, human", "settings": "drug alone"}}, "note": "Where “and” joins values, the source holds several entries; their conditions need not be identical. Equal entries are not always repeated."}
{"smiles": "CCOc1cccc2cc(C(C)NCC3(O)CCCCC3)oc12", "note": "(stereo not shown) [O4LE6]", "values": [{"measurement": "Ki", "setting": "DRD3 wild-type", "result": 224, "unit": "nM"}, {"measurement": "EC50", "setting": "DRD2 (D2 long receptor); DRD2, agonist, Gαi/o-mediated cAMP inhibition, read-out: EC50 ± SEM", "result": 0.57, "unit": "nM"}, {"measurement": "response, Fig_S11d dose-response source data", "setting": "DRD2 (D2 long receptor); Log[Drug] -6.52", "result": 93.5634}, {"measurement": "response, Fig_S11d dose-response source data", "setting": "DRD2 (D2 long receptor); Log[Drug] -7", "result": "91.3799 and 89.9656 and 96.7642 and 92.7028 and 90.0117 and 92.9852 and 92.6706 and 90.0792 and 94.9443"}, {"measurement": "response, Fig_S11d dose-response source data", "setting": "DRD2 (D2 long receptor); Log[Drug] -7.52", "result": "89.3701 and 83.9361 and 92.3724 and 89.5789 and 91.7807 and 86.0032 and 96.0478 and 86.7857 and 84.4618"}, {"measurement": "response, Fig_S11d dose-response source data", "setting": "DRD2 (D2 long receptor); Log[Drug] -8", "result": "70.6367 and 72.3736 and 84.6805 and 78.0803 and 77.3651 and 77.1016 and 86.6519 and 79.5632 and 77.7576"}, {"measurement": "response, Fig_S11d dose-response source data", "setting": "DRD2 (D2 long receptor); Log[Drug] -8.52", "result": "93.2656 and 95.6724 and 92.9431 and 77.1769 and 79.2659 and 71.4182 and 77.4232 and 75.6176 and 79.697"}, {"measurement": "response, Fig_S11d dose-response source data", "setting": "DRD2 (D2 long receptor); Log[Drug] -9", "result": "51.5311 and 33.9143 and 52.5981 and 65.5842 and 66.7322 and 55.2712 and 58.2302 and 71.02 and 60.3368"}, {"measurement": "response, Fig_S11d dose-response source data", "setting": "DRD2 (D2 long receptor); Log[Drug] -9.52", "result": "27.2398 and 43.5167 and 44.7822 and 40.3099 and 41.1379 and 42.7564 and 40.5085 and 50.7403 and 30.2265"}, {"measurement": "response, Fig_S11d dose-response source data", "setting": "DRD2 (D2 long receptor); Log[Drug] -10", "result": "9.9455 and 25.9991 and 17.2652 and 20.7754 and 27.795 and 3.65 and 25.4283 and 30.0426 and 37.3152"}, {"measurement": "response, Fig_S11d dose-response source data", "setting": "DRD2 (D2 long receptor); Log[Drug] -10.52", "result": "8.06 and 24.1134 and 23.7164 and -2.2029 and 14.9603 and -7.6605 and -4.2473 and 22.3855 and 15.9154"}, {"measurement": "response, Fig_S11d dose-response source data", "setting": "DRD2 (D2 long receptor); Log[Drug] -11", "result": "4.9334 and 7.216 and -1.766 and -6.3996 and -4.3107 and -5.3646 and 21.048 and 18.6238 and 5.767"}, {"measurement": "response, Fig_S11d dose-response source data", "setting": "DRD2 (D2 long receptor); Log[Drug] -11.52", "result": "10.5658 and 8.68 and -1.4434 and 5.588 and 4.9296 and 13.8311 and 19.0585 and 28.0698 and 34.2223"}, {"measurement": "response, Fig_S11d dose-response source data", "setting": "DRD2 (D2 long receptor); Log[Drug] -12", "result": "-7.7209 and 3.569 and -11.1202 and -5.7974 and -18.3122 and 14.3957 and 12.4212 and 21.7836 and -1.1209"}, {"measurement": "Emax", "setting": "DRD2 (D2 long receptor); HEK-293T, read-out: Emax relative to quinpirole response, DRD2, cAMP inhibition", "result": 94.8, "unit": "%"}, {"measurement": "Response, Fig_S11b dose-response", "setting": "DRD2 (D2 long receptor); Log[Drug] -5", "result": "94.6799 and 95.4987 and 95.201 and 94.3966 and 96.6361 and 95.6198 and 95.7635 and 88.9256 and 95.1617"}, {"measurement": "Response, Fig_S11b dose-response", "setting": "DRD2 (D2 long receptor); Log[Drug] -5.52", "result": "94.4814 and 96.3424 and 99.171 and 96.9372 and 94.2837 and 95.6198 and 98.4051 and 98.5221 and 95.5796"}, {"measurement": "Response, Fig_S11b dose-response", "setting": "DRD2 (D2 long receptor); Log[Drug] -6", "result": "96.5905 and 98.1785 and 100.163 and 88.2615 and 91.4043 and 96.2597 and 93.8409 and 94.9611 and 95.7301"}, {"measurement": "Response, Fig_S11b dose-response", "setting": "DRD2 (D2 long receptor); Log[Drug] -6.52", "result": "93.5634 and 99.7168 and 93.0671 and 101.473 and 96.4667 and 100.061 and 98.4218 and 97.9202 and 92.704"}, {"measurement": "Response, Fig_S11b dose-response", "setting": "DRD2 (D2 long receptor); Log[Drug] -7", "result": "91.3799 and 89.9656 and 96.7642 and 92.7028 and 90.0117 and 92.9852 and 92.6706 and 90.0792 and 94.9443"}, {"measurement": "Response, Fig_S11b dose-response", "setting": "DRD2 (D2 long receptor); Log[Drug] -7.52", "result": "89.3701 and 83.9361 and 92.3724 and 89.5789 and 91.7807 and 86.0032 and 96.0478 and 86.7857 and 84.4618"}, {"measurement": "Response, Fig_S11b dose-response", "setting": "DRD2 (D2 long receptor); Log[Drug] -8", "result": "70.6367 and 72.3736 and 84.6805 and 78.0803 and 77.3651 and 77.1016 and 86.6519 and 79.5632 and 77.7576"}, {"measurement": "Response, Fig_S11b dose-response", "setting": "DRD2 (D2 long receptor); Log[Drug] -8.52", "result": "93.2656 and 95.6724 and 92.9431 and 77.1769 and 79.2659 and 71.4182 and 77.4232 and 75.6176 and 79.697"}, {"measurement": "Response, Fig_S11b dose-response", "setting": "DRD2 (D2 long receptor); Log[Drug] -9", "result": "51.5311 and 33.9143 and 52.5981 and 65.5842 and 66.7322 and 55.2712 and 58.2302 and 71.02 and 60.3368"}, {"measurement": "Response, Fig_S11b dose-response", "setting": "DRD2 (D2 long receptor); Log[Drug] -11", "result": 4.9334}, {"measurement": "Response, Fig_S11b dose-response", "setting": "DRD2 (D2 long receptor); Log[Drug] -11.52", "result": "10.5658 and 8.68 and -1.4434 and 5.588 and 4.9296 and 13.8311 and 19.0585 and 28.0698 and 34.2223"}, {"measurement": "Response, Fig_S11b dose-response", "setting": "DRD2 (D2 long receptor); Log[Drug] -12", "result": "-7.7209 and 3.569 and -11.1202 and -5.7974 and -18.3122 and 14.3957 and 12.4212 and 21.7836 and -1.1209"}, {"measurement": "EC50", "setting": "DRD4 (D4.4 variant)", "result": "> 10000", "unit": "nM"}, {"measurement": "EC50", "setting": "DRD3; read-out: EC50 ± SEM", "result": "708.5 ± 6.3", "unit": "nM"}, {"measurement": "Emax", "setting": "DRD3; read-out: Emax relative to quinpirole response", "result": 15.8, "unit": "%"}, {"measurement": "EC50", "setting": "DRD2 F1103.28A", "result": "> 10000", "unit": "nM"}]}
{"smiles": "NCCc1c[nH]c2ccc(O)cc12", "note": "[serotonin]", "values": [{"measurement": "response, Fig_S10l, replicate values", "setting": "[1]; Log[Drug] -6.52", "result": "89.1482 and 68.7936 and 58.4442"}, {"measurement": "response, Fig_S10l, replicate values", "setting": "[1]; Log[Drug] -7", "result": "66.8775 and 42.3868 and 35.3098 and 60.5263 and 52.6042 and 58.638 and 24.4765 and 22.6408 and 30.0813"}, {"measurement": "response, Fig_S10l, replicate values", "setting": "[1]; Log[Drug] -7.52", "result": "68.5906 and 51.7176 and 27.5973 and 17.0437 and 36.727 and -5.864 and 8.121 and 12.6341 and 15.0506"}, {"measurement": "response, Fig_S10l, replicate values", "setting": "[1]; Log[Drug] -8", "result": "24.3997 and 25.1743 and 11.0247 and 13.4188 and 3.861 and -8.27 and 5.486 and 9.516 and -0.3454"}, {"measurement": "response, Fig_S10l, replicate values", "setting": "[1]; Log[Drug] -8.52", "result": "28.2691 and 10.8991 and 0.6654 and 20.8515 and 4.218 and 3.753 and -2.601 and -10.3369 and 7.58"}, {"measurement": "response, Fig_S10l, replicate values", "setting": "[1]; Log[Drug] -9", "result": "8.291 and 7.398 and -4.407 and 28.3765 and 10.5666 and -13.7434 and -1.811 and 21.0925 and -2.254"}, {"measurement": "response, Fig_S10l, replicate values", "setting": "[1]; Log[Drug] -9.52", "result": "15.1454 and -8.903 and -7.678 and 11.6014 and -2.921 and -5.371 and 3.959 and 0.2537 and -8.706"}, {"measurement": "response, Fig_S10l, replicate values", "setting": "[1]; Log[Drug] -10", "result": "10.6015 and 17.2844 and 5.47 and 9.7774 and -6.372 and -8.832 and 0.1972 and 15.6666 and 6.603"}, {"measurement": "response, Fig_S10l, replicate values", "setting": "[1]; Log[Drug] -10.52", "result": "14.0658 and 3.099 and 4.084 and 6.9236 and -15.9908 and -3.571 and 14.7648 and -9.016 and -4.897"}, {"measurement": "response, Fig_S10l, replicate values", "setting": "[1]; Log[Drug] -11", "result": "11.925 and 9.507 and -4.609 and 40.988 and 1.279 and -23.0265 and -4.413 and 0.5655 and 2.993"}, {"measurement": "response, Fig_S10l, replicate values", "setting": "[1]; Log[Drug] -11.52", "result": "29.1466 and 5.5415 and 2.1791 and 13.0085 and 1.916 and 6.51 and 8.732 and 12.6601"}, {"measurement": "response, Fig_S10l, replicate values", "setting": "[1]; Log[Drug] -12", "result": "12.8871 and 8.151 and 29.2053 and 0.5174 and 13.376 and 13.9134 and 1.483 and -15.396"}]}
